The source of these data is PubChem BioAssay (NCI).

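Assay format: 96-well plates, 48-hour exposure. TGI denotes the concentration required for complete inhibition of growth.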

Some test systems named below: DMS 114 small cell lung; DMS 273 small cell lung; HOP-18 NSCLC; KM20L2 colon; LXFL 529 NSCLC; M19-MEL melanoma; MDA-N; RXF-631 renal; XF 498 CNS.
What all share (experiment): growth of human tumour cells (NCI), 48 h

Regarding `O=C1C=C(Nc2ccccc2C(=O)CC(=O)C(=O)Nc2cccc(C(F)(F)F)c2)c2ccccc2C1=O`, the TGI is 35.1 µM in the experiment on DMS 114 small cell lung; greater than 94.4 µM with DMS 273 small cell lung; 40.6 µM in the experiment on HOP-18 NSCLC; greater than 100 µM in the experiment with KM20L2 colon; 71.5 µM in the experiment with LXFL 529 NSCLC; 8.48 µM in the experiment on M19-MEL melanoma. Besides, the TGI in the experiment on MDA-N is 26.7 µM; in the experiment with RXF-631 renal, greater than 100 µM; in the experiment with XF 498 CNS, 48.7 µM.
